According to publication PMC9032663, “α-Glucosidase Inhibitory and Antimicrobial Benzoylphloroglucinols from Garcinia schomburgakiana Fruits: In Vitro and In Silico Studies” (Molecules, 2022):
pIC50: −log10 of the molar value. In brackets after ≈: the same amount, converted by molar mass. Like-named read-outs stand apart in the source and are kept apart here.

Experiments:
α-glucosidase = α-glucosidase inhibition assay; type: biochemical, yeast; conditions: in vitro; read-out: α-glucosidase inhibitory activity IC50
Procedure: The enzymatic reaction was carried out at 37 °C for 20 min and stopped by adding 0.2 M Na2CO3 (130 μL). Enzymatic activity was quantified by measuring absorbance at 405 nm. All samples were analyzed in triplicate at five different concentrations around the IC50 values, and the mean values were retained.

cytotoxicity assay = type: cell-based; conditions: human, HEK293 cells (normal cell line)
Description: The cytotoxic evaluation of compound 1 against the HEK293 normal cell line was applied from a previous procedure.

Staphylococcus aureus = assay: agar well diffusion antibacterial assay; type: cell-based; conditions: S. aureus, concentration of 50 µg/mL
Procedure: (§1) The agar well diffusion method was used to evaluate the antibacterial activity of the isolated compounds on antibiotic-resistant, pathogenic bacteria Staphylococcus aureus, Enterococcus faecium, and Acinetobacter baumannii. Three bacterial pathogens were cultured in nutrient broth at 37 °C for 18 h. The cultures were diluted with sterile 0.9% NaCl to obtain bacterial solutions of 1.5 × 10^8 CFU/mL. This solution with a volume of 100 μL was spread on a Mueller–Hinton agar plate. Holes with a diameter of 8 mm were punched aseptically to create wells on the surface of the Mueller–Hinton agar. The compounds were dissolved in DMSO. The amount of 50 µg of each compound solution was inserted into the wells. The plates were incubated at 37 °C for 16–18 h, and the antibacterial activity of each compound was recorded by measuring the diameters of the inhibition zones surrounding the wells. DMSO was used as a control. […] Kanamycin was used as the positive control in this experiment.

Enterococcus faecium = assay: agar well diffusion antibacterial assay; type: cell-based; conditions: E. faecium, concentration of 50 µg/mL
Procedure: as §1

Acinetobacter baumannii = assay: agar well diffusion antibacterial assay; type: cell-based; conditions: A. baumannii, at the tested concentration
Procedure: as §1

S. aureus [1] = assay: MIC determination; type: cell-based, Staphylococcus aureus
S. aureus [2] = test system: S. aureus; set-up: method as in PMID 27458464; conditions: cited from earlier work

CC(C)=CCCC1(C)C(CC=C(C)C)CC23CCC(C)(C)OC2=C(C(=O)c2ccc(O)c(O)c2)C(=O)C1(CC=C(C)C)C3=O (centres unmarked) [Compound 1, schomburgkianone I]
pIC50 (α-glucosidase): 4.67
pIC50 (cytotoxicity assay): 4.06
zone of inhibition at 50 µg/mL (Staphylococcus aureus): 21 mm
zone of inhibition at 50 µg/mL (Enterococcus faecium): 20 mm
antimicrobial activity (Acinetobacter baumannii): failed to show any activity
MIC (S. aureus [1]; Staphylococcus aureus): 13.3 µM (≈ 8.03 µg/mL)

NC[C@H]1O[C@H](O[C@H]2[C@H](O)[C@@H](O[C@H]3O[C@H](CO)[C@@H](O)[C@H](N)[C@H]3O)[C@H](N)C[C@@H]2N)[C@H](O)[C@@H](O)[C@@H]1O [kanamycin, reference compound]
MIC (S. aureus [1]): 8.26 µM (≈ 4 µg/mL)

Guttiferone BL
activity against S. aureus (S. aureus [2]): low activity
